Data taken from patent publication US20230183237A1, “COMPETITIVE AND NONCOMPETITIVE INHIBITORS OF THE MUSCARINIC ACETYLCHOLINE RECEPTOR M5” (Vanderbilt University, priority 2020, published 2023).
Read-outs that look alike come from different tables or passages of the source.

Target: T1, hM5 (Homo sapiens, UniProt P08912)
T1 construct: expressed in transfected cells
T1 sequence (P08912 1-532): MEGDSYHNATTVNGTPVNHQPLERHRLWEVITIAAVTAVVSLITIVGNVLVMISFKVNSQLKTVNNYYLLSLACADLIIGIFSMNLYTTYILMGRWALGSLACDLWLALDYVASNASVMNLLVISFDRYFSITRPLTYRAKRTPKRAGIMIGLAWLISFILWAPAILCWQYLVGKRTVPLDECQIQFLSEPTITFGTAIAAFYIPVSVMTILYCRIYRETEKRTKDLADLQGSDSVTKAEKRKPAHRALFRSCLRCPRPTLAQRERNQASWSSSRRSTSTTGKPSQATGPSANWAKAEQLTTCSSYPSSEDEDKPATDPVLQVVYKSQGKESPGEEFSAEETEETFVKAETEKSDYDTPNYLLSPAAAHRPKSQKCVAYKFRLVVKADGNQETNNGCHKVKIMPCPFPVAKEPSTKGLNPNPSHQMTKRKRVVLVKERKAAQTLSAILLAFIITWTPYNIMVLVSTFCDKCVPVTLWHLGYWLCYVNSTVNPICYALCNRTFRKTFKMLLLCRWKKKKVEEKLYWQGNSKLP
Test: Calcium mobilization concentration-response (IC50 vs EC80 acetylcholine), CHO hM5
Type: cell-based
Conditions: CELL LINE hM5, read-out: IC50
Outline: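 IC50 values derive from percent maximal acetylcholine response after an EC80 ACh addition, measured as kinetic calcium fluorescence (static ratio, max−min). Test compounds were added 140 s before agonist. Cells: stable hM5-CHO in HEPES-buffered HBSS with 2.5 mM probenecid, pH 7.4; ≥3 independent triplicate determinations.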

[1] = calcium mobilization, EC80 acetylcholine addition

Row | SMILES | IC50 [1] [nM] | IC50 (vs EC80 acetylcholine) [nM]
1 | Cc1nc2cc(C)c(C3CCN(S(=O)(=O)c4ccc5c(c4)C(C)CO5)CC3)cn2n1 (centres unmarked) [Compound 89, 2,7-dimethyl-6-(1-((3-methyl-2,3-dihydrobenzofuran-5-yl)sulfonyl)piperidin-4-yl)-[1,2,4]triazolo[1,5-a]pyridine] | 2100 | 
2 | Cc1cc2nccn2nc1C1CCN(S(=O)(=O)c2cn(C)nc2C)CC1 [Compound 55, 6-(1-((1,3-dimethyl-1H-pyrazol-4-yl)sulfonyl)piperidin-4-yl)-7-methylimidazo[1,2-b]pyridazine] | 5600 | 
3 | COc1cc2ncnn2cc1C1CCN(S(=O)(=O)c2ccc3ncsc3c2)CC1 [Compound 82, 6-((4-(7-methoxy-[1,2,4]triazolo[1,5-a]pyridin-6-yl)piperidin-1-yl)sulfonyl)benzo[d]thiazole] | > 10000 | 
4 | O=S(=O)(c1cnc2n1CCC2)N1CC=C(c2cn3ncnc3cc2Cl)CC1 [Compound 207, 7-chloro-6-(1-((6,7-dihydro-5H-pyrrolo[1,2-a]imidazol-3-yl)sulfonyl)-1,2,3,6-tetrahydropyridin-4-yl)-[1,2,4]triazolo[1,5-a]pyridine] | 1600 | 
5 | Cc1cc2ncnn2cc1C1CCN(S(=O)(=O)c2ccsc2)CC1 [Compound 125, 7-methyl-6-(1-(thiophen-3-ylsulfonyl)piperidin-4-yl)-[1,2,4]triazolo[1,5-a]pyridine] | > 10000 | 
6 | Cc1cc2ncnn2cc1C1CCN(S(=O)(=O)c2cnc3c(c2)CCO3)CC1 [Compound 141, 5-((4-(7-methyl-[1,2,4]triazolo[1,5-a]pyridin-6-yl)piperidin-1-yl)sulfonyl)-2,3-dihydrofuro[2,3-b]pyridine] | 1400 | 

Other lines, results leading:

Row | IC50 [1] [nM] | IC50 (vs EC80 acetylcholine) [nM] | SMILES
7 |  | 115 | CCc1cc2ncnn2cc1C1CCN(S(=O)(=O)c2cnc3sccn23)CC1 [Compound 512, 5-((4-(7-ethyl-[1,2,4]triazolo[1,5-a]pyridin-6-yl)piperidin-1-yl)sulfonyl)imidazo[2,1-b]thiazole]
8 |  | > 10000 | Cn1ncc(S(=O)(=O)N2CCC(c3cn4ncnc4cc3F)CC2)c1CN [Compound 530, (4-((4-(7-fluoro-[1,2,4]triazolo[1,5-a]pyridin-6-yl)piperidin-1-yl)sulfonyl)-1-methyl-1H-pyrazol-5-yl)methanamine]
9 | 29 |  | [2H]C([2H])([2H])n1nc(Cl)c(S(=O)(=O)N2CCC(c3cn4ncnc4cc3C)CC2)c1C [Compound 260, 6-(1(3-chloro-5-methyl-1-(methyl-d3-1H-pyrazol-4-yl)sulfonyl)piperidin-4-yl)-7-methyl-[1,2,4]triazolo[1,5-a]pyridine]
10 |  | > 10000 | Cc1cc2ncnn2cc1C1CCN(S(=O)(=O)c2cnn(C)c2C2CCNCC2)CC1 [Compound 577, 7-Methyl-6-(1-((1-methyl-5-(piperidin-4-yl)-1H-pyrazol-4-yl)sulfonyl)piperidin-4-yl)-[1,2,4]triazolo[1,5-a]pyridine]
11 |  | 86 | Cc1cc2ncnn2cc1C1(F)CCN(S(=O)(=O)c2cnn(C)c2C#N)CC1 [Compound 462, 4-((4-fluoro-4-(7-methyl-[1,2,4]triazolo[1,5-a]pyridin-6-yl)piperidin-1-yl)sulfonyl)-1-methyl-1H-pyrazole-5-carbonitrile]
12 | 284 |  | Cc1nn(C)c(C(F)(F)F)c1S(=O)(=O)N1CCC(c2cn3ncnc3c(F)c2C)CC1 [Compound 266, 6-(1-((1,3-dimethyl-5-(trifluoromethyl)-1H-pyrazol-4-yl)sulfonyl)piperidin-4-yl)-8-fluoro-7-methyl-[1,2,4]triazolo[1,5-a]pyridine]
13 |  | > 10000 | Cc1cc2ncnn2nc1C1CCN(S(=O)(=O)c2cn(C)nn2)CC1 [Compound 559, 7-methyl-6-(1-((1-methyl-1H-1,2,3-triazol-4-yl)sulfonyl)piperidin-4-yl)-[1,2,4]triazolo[1,5-b]pyridazine]
14 |  | 126 | Cc1cc(S(=O)(=O)N2CCC(c3cn4ncnc4cc3CCl)CC2)sn1 [Compound 606, 5-((4-(7-(chloromethyl)-[1,2,4]triazolo[1,5-a]pyridin-6-yl)piperidin-1-yl)sulfonyl)-3-methylisothiazole]
